This note sets out measurements from patent US11254668B2, “Pyrazolo[1,5-A]pyrazin-4-yl and related derivatives” (Pfizer Inc., priority 2017, dated 2022).

A value given as a limit tells only on which side of the number the result lay.

Holding throughout (assay type): biochemical
Assay [1] has as its target TYK2 (Homo sapiens (Human), UniProt P29597). The assay is described as follows: JAK Caliper Enzyme Assay at 1 mM ATP, TYK2. The gist of the method:
(§1)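 Human recombinant kinase domain + fluorescently labelled synthetic peptide, 1 mM ATP, RT; enzyme level/time set for 20–30% phosphorylation. EDTA stop. LabChip separation, peak-height % conversion, % effect vs plate controls.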

Assay [2] concerns the target JAK3 (Homo sapiens (Human), UniProt P52333). The assay is described as follows: JAK Caliper Enzyme Assay at 1 mM ATP, JAK3. The gist of the method:
(§2)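 Recombinant human kinase domains phosphorylated a fluorescent synthetic peptide at room temperature, with enzyme level and time tuned to 20% to 30% conversion; EDTA stop buffer ended reactions. Mobility-shift separation gave percent product from peak heights, normalised to DMSO and positive controls, and IC50s came from concentration–effect curves.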

The target in assay [3] is JAK1 (Homo sapiens (Human), UniProt P23458). The assay is described as follows: JAK Caliper Enzyme Assay at 1 mM ATP, JAK1. Put shortly: as §2
For assay [4], the target named is JAK2 (Homo sapiens (Human), UniProt O60674). The assay is described as follows: JAK Caliper Enzyme Assay at 1 mM ATP, JAK2. The gist of the method: as §1
Chain of JAK2 (O60674 849-1124): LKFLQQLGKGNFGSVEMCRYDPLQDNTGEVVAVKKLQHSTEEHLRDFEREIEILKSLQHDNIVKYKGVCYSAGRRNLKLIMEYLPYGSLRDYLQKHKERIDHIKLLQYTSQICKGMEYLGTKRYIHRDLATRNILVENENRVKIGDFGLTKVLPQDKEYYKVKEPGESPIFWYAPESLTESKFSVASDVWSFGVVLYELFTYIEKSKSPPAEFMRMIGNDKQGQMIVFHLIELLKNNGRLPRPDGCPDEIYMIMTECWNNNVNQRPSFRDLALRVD

Chain of TYK2 (P29597 897-1176): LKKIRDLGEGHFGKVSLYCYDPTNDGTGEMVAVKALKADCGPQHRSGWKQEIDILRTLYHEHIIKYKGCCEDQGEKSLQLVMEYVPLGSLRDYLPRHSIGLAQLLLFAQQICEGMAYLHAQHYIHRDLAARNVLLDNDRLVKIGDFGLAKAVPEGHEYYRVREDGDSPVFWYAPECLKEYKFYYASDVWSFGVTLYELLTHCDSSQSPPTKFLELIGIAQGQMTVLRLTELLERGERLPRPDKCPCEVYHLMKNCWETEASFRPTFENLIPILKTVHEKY
Chain of JAK1 (P23458 875-1153): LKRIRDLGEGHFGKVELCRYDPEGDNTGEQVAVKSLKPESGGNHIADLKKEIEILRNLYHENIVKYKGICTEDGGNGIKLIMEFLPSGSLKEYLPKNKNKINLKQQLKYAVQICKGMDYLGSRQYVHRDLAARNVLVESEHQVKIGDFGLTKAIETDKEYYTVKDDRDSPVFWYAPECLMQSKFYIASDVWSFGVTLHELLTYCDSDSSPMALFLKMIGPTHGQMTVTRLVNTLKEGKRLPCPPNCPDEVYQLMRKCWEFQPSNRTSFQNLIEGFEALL
Chain of JAK3 (P52333 822-1111): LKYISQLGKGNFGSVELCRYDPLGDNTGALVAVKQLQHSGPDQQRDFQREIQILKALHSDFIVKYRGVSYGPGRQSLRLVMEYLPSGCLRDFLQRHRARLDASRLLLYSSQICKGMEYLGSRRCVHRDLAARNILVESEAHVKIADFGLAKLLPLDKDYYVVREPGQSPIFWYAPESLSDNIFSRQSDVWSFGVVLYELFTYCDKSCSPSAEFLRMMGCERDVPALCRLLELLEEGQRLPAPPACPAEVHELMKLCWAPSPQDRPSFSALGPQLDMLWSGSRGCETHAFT

What is called IC50 is the point on the concentration scale where inhibition reaches its midpoint. Consider `N#CC[C@]1(n2ncc(-c3cc(-c4cc(CO)[nH]n4)cc4ncccc34)n2)C[C@H](C#N)C1` [Example 308, trans-3-(cyanomethyl)-3-(4-{7-[5-(hydroxymethyl)-1H-pyrazol-3-yl]quinolin-5-yl}-2H-1,2,3-triazol-2-yl)cyclobutanecarbonitrile], for which the concentration for half-maximal inhibition (IC50) in assay [1] was 18 nM; in assay [2], more than 10000 nM; in assay [3], 719 nM; in assay [4], 131 nM.

As for `Cn1nc(-c2cc(-c3cnn([C@]4(CC#N)C[C@@H](C#N)C4)n3)c3cccnc3c2)cc1CO` [Example 309, trans-3-(cyanomethyl)-3-(4-{7-[5-(hydroxymethyl)-1-methyl-1H-pyrazol-3-yl]quinolin-5-yl}-2H-1,2,3-triazol-2-yl)cyclobutanecarbonitrile], the IC50 in assay [1] was 29 nM; in assay [2], more than 10000 nM; in assay [3], 1880 nM; in assay [4], 163 nM.

For the compound `Cn1nccc1-c1cc(-c2cnn(C3(CC#N)CN(S(C)(=O)=O)C3)n2)c2cccnc2c1` [Example 310, [3-{4-[7-(1-methyl-1H-pyrazol-5-yl)quinolin-5-yl]-2H-1,2,3-triazol-2-yl}-1-(methylsulfonyl)azetidin-3-yl]acetonitrile], the 50% inhibitory concentration (IC50) is 725 nM in assay [1], more than 10000 nM in assay [2], more than 10000 nM in assay [3] and more than 10000 nM in assay [4].

As for `Cn1ccc(-c2cc(-c3cnn(C4(CC#N)CN(S(C)(=O)=O)C4)n3)c3cccnc3c2)n1` [Example 311, [3-{4-[7-(1-methyl-1H-pyrazol-3-yl)quinolin-5-yl]-2H-1,2,3-triazol-2-yl}-1-(methylsulfonyl)azetidin-3-yl]acetonitrile], the IC50 in assay [1] was 25 nM; in assay [2] it was more than 10000 nM; in assay [3] it was 2260 nM; in assay [4], 287 nM.

For `Cn1ccc(-c2cc(-c3cnn([C@]4(CC#N)C[C@@H](C#N)C4)n3)c3cccnc3c2)n1` [Example 312, trans-3-(cyanomethyl)-3-{4-[7-(1-methyl-1H-pyrazol-3-yl)quinolin-5-yl]-2H-1,2,3-triazol-2-yl}cyclobutanecarbonitrile], the IC50 is 31 nM in assay [1], more than 10000 nM in assay [2], 1640 nM in assay [3] and 246 nM in assay [4].

As to `Cn1ccc(-c2cc(-c3cnn([C@]4(CC#N)C[C@H](C#N)C4)n3)c3cccnc3c2)n1` [Example 313, cis-3-(cyanomethyl)-3-{4-[7-(1-methyl-1H-pyrazol-3-yl)quinolin-5-yl]-2H-1,2,3-triazol-2-yl}cyclobutanecarbonitrile], the IC50 in assay [1] is 25 nM; in assay [2], 5470 nM; in assay [3] it was 486 nM; in assay [4], 79 nM.

For the compound `CS(=O)(=O)N1CC(CC#N)(n2ncc(-c3cc(-c4cn[nH]c4)cc4ncccc34)n2)C1` [Example 314, [1-(methylsulfonyl)-3-{4-[7-(1H-pyrazol-4-yl)quinolin-5-yl]-2H-1,2,3-triazol-2-yl}azetidin-3-yl]acetonitrile], the IC50 was 32 nM in assay [1], more than 10000 nM in assay [2], 1150 nM in assay [3] and 390 nM in assay [4].

For the compound `N#CC[C@]1(n2ncc(-c3cc(-c4cn[nH]c4)cc4ncccc34)n2)C[C@@H](C#N)C1` [Example 316, cis-3-(cyanomethyl)-3-{4-[7-(1H-pyrazol-4-yl)quinolin-5-yl]-2H-1,2,3-triazol-2-yl}cyclobutanecarbonitrile], the half-maximal inhibitory concentration (IC50) is 8 nM in assay [1], 2730 nM in assay [2], 122 nM in assay [3] and 48 nM in assay [4].

On to `N#CC[C@]1(n2ncc(-c3cc(-c4c[nH]nc4CO)cc4ncccc34)n2)C[C@H](C#N)C1` [Example 317, trans-3-(cyanomethyl)-3-(4-{7-[3-(hydroxymethyl)-1H-pyrazol-4-yl]quinolin-5-yl}-2H-1,2,3-triazol-2-yl)cyclobutanecarbonitrile], for which the 50% inhibitory concentration (IC50) in assay [1] is 57 nM; in assay [2], more than 10000 nM; in assay [3] it was 2830 nM; in assay [4] it was 838 nM.

As for `N#CC[C@]1(n2ncc(-c3cc(-c4c[nH]nc4CO)cc4ncccc34)n2)C[C@@H](C#N)C1` [Example 318, cis-3-(cyanomethyl)-3-(4-{7-[3-(hydroxymethyl)-1H-pyrazol-4-yl]quinolin-5-yl}-2H-1,2,3-triazol-2-yl)cyclobutanecarbonitrile], the concentration for half-maximal inhibition (IC50) in assay [1] was 17 nM; in assay [2], 9270 nM; in assay [3], 540 nM; in assay [4], 137 nM.

As to `N#CC[C@]1(n2ncc(-c3cc(-c4cn[nH]c4N)cc4ncccc34)n2)C[C@H](C#N)C1` [Example 319, trans-3-{4-[7-(5-amino-1H-pyrazol-4-yl)quinolin-5-yl]-2H-1,2,3-triazol-2-yl}-3-(cyanomethyl)cyclobutanecarbonitrile], the IC50 in assay [1] is 16 nM; in assay [2] it was more than 10000 nM; in assay [3], 1250 nM; in assay [4], 530 nM.

For the compound `N#CC[C@]1(n2ncc(-c3cc(-c4cn[nH]c4N)cc4ncccc34)n2)C[C@@H](C#N)C1` [Example 320, cis-3-{4-[7-(5-amino-1H-pyrazol-4-yl)quinolin-5-yl]-2H-1,2,3-triazol-2-yl}-3-(cyanomethyl)cyclobutanecarbonitrile], the IC50 is 5 nM in assay [1], 8030 nM in assay [2], 256 nM in assay [3] and 77 nM in assay [4].

Take `C[C@]1(C#N)C[C@](CC#N)(n2ncc(-c3cc(-c4c[nH]nc4N)cc4ncccc34)n2)C1` [Example 321, trans-3-{4-[7-(3-amino-1H-pyrazol-4-yl)quinolin-5-yl]-2H-1,2,3-triazol-2-yl}-3-(cyanomethyl)-1-methylcyclobutanecarbonitrile]: the 50% inhibitory concentration (IC50) was 844 nM in assay [1], more than 10000 nM in assay [2], more than 10000 nM in assay [3] and 7690 nM in assay [4].

Regarding `C[C@]1(C#N)C[C@@](CC#N)(n2ncc(-c3cc(-c4cn[nH]c4N)cc4ncccc34)n2)C1` [Example 322, cis-3-{4-[7-(5-amino-1H-pyrazol-4-yl)quinolin-5-yl]-2H-1,2,3-triazol-2-yl}-3-(cyanomethyl)-1-methylcyclobutanecarbonitrile], the half-inhibitory concentration (IC50) is 74 nM in assay [1], more than 10000 nM in assay [2], 2590 nM in assay [3] and 959 nM in assay [4].

In the case of `Cn1cc(-c2cc(-c3cnn(C4(CC#N)CN(S(C)(=O)=O)C4)n3)c3cccnc3c2)cn1` [Example 323, [3-{4-[7-(1-methyl-1H-pyrazol-4-yl)quinolin-5-yl]-2H-1,2,3-triazol-2-yl}-1-(methylsulfonyl)azetidin-3-yl]acetonitrile], the IC50 is 69 nM in assay [1], more than 10000 nM in assay [2], 2840 nM in assay [3] and 244 nM in assay [4].

As to `Cn1cc(-c2cc(-c3cnn([C@]4(CC#N)C[C@@H](C#N)C4)n3)c3cccnc3c2)cn1` [Example 324, trans-3-(cyanomethyl)-3-{4-[7-(1-methyl-1H-pyrazol-4-yl)quinolin-5-yl]-2H-1,2,3-triazol-2-yl}cyclobutanecarbonitrile], the half-inhibitory concentration (IC50) is 30 nM in assay [1], 9930 nM in assay [2], 1420 nM in assay [3] and 144 nM in assay [4].

Consider `Cn1cc(-c2cc(-c3cnn(C4(CC#N)CC(C#N)C4)n3)c3cccnc3c2)cn1` (stereo not drawn) [Example 325, cis-3-(cyanomethyl)-3-{4-[7-(1-methyl-1H-pyrazol-4-yl)quinolin-5-yl]-2H-1,2,3-triazol-2-yl}cyclobutanecarbonitrile], for which the IC50 is 11 nM in assay [1], 2150 nM in assay [2], 319 nM in assay [3] and 32 nM in assay [4].

Take `N#CC[C@]1(n2ncc(-c3cc(-c4cnn(CCO)c4)cc4ncccc34)n2)C[C@H](C#N)C1` [Example 326, trans-3-(cyanomethyl)-3-(4-{7-[1-(2-hydroxyethyl)-1H-pyrazol-4-yl]quinolin-5-yl}-2H-1,2,3-triazol-2-yl)cyclobutanecarbonitrile]: the IC50 in assay [1] turned out to be 9 nM; in assay [2], 4170 nM; in assay [3], 332 nM; in assay [4] it was 45 nM.

As for `N#CC[C@]1(n2ncc(-c3cc(-c4cnn(CCO)c4)cc4ncccc34)n2)C[C@@H](C#N)C1` [Example 327, cis-3-(cyanomethyl)-3-(4-{7-[1-(2-hydroxyethyl)-1H-pyrazol-4-yl]quinolin-5-yl}-2H-1,2,3-triazol-2-yl)cyclobutanecarbonitrile], the IC50 amounted to 20 nM in assay [1], 3290 nM in assay [2], 262 nM in assay [3] and 52 nM in assay [4].

Take `Cn1cc(-c2cc(-c3cnn(C4(CC#N)CC(C#N)C4)n3)c3cccnc3c2)c(CO)n1` (stereo not drawn) [Example 329, trans-3-(cyanomethyl)-3-(4-{7-[3-(hydroxymethyl)-1-methyl-1H-pyrazol-4-yl]quinolin-5-yl}-2H-1,2,3-triazol-2-yl)cyclobutanecarbonitrile]: the IC50 in assay [1] is 71 nM; in assay [2], more than 10000 nM; in assay [3] it was 7000 nM; in assay [4], 666 nM.

Take `Cn1ncc(-c2cc(-c3cnn([C@]4(CC#N)C[C@@H](C#N)C4)n3)c3cccnc3c2)c1N` [Example 330, trans-3-{4-[7-(5-amino-1-methyl-1H-pyrazol-4-yl)quinolin-5-yl]-2H-1,2,3-triazol-2-yl}-3-(cyanomethyl)cyclobutanecarbonitrile]: the IC50 is 143 nM in assay [1], more than 10000 nM in assay [2], 7700 nM in assay [3] and 1620 nM in assay [4].
